Laboratory results: patent publication US20250049776A1, “AUTOPHAGY INDUCING COMPOUNDS AND USES THEREOF, IN PARTICULAR FOR A SYSTEMIC TREATMENT OF DISEASES AND CONDITIONS” (Samsara Therapeutics Inc., priority 2021, published 2025)
Structures can show the parent of a compound that is named as a salt.

Tested on: dopaminergic Tyrosine hydroxylase (TH)-positive neurons injured with MPTP
Assay: Cellular model of Parkinson's disease (MPTP/MPP+ injury of primary mesencephalic neurons)
Assay type: cell-based, Rat
Conditions: concentrations of 500 μM and 1 μM
Text: This model (run by Neuro-Sys SAS, France) is based on a primary culture of dopaminergic Tyrosine hydroxylase (TH)-positive neurons injured with the dopaminergic neurons-specific toxin (DA-toxin) 1-methyl-4-phenyl-1,2,3,6 tetrahydropyridine (MPTP, a prodrug of MPP*) (Dauer and Przedborski, 2003). Any substances reducing DA-toxin neurotoxicity may be useful as a new therapeutic agent for the treatment or prevention of PD.
Primary culture of mesencephalic neurons: Rat dopaminergic neurons were cultured as described by Visanji et al., 2008 and Callizot et al., 2019. Briefly, pregnant female rat (Wistar) of 15 days of gestation were killed using a deep anesthesia with CO2 chamber and a cervical dislocation. The midbrains obtained from 15-day-old rat embryos (Janvier, France) were dissected under a microscope. The embryonic midbrains will be removed and placed in ice-cold medium of Leibovitz (L15) containing 2% of Penicillin-Streptomycin (PS) and 1% of bovine serum albumin (BSA). The ventral portion of the mesencephalic flexure, a region of the developing brain rich in dopaminergic neurons, was used for the cell preparations.
The midbrains were dissociated by trypsinisation for 20 min at 37° C. (solution at a final concentration of 0.05% trypsin and 0.02% EDTA). The reaction was stopped by the addition of Dulbecco's modified Eagle's medium (DMEM) containing DNAase I grade II (0.5 mg/mL) and 10% of foetal calf serum (FCS). Cells were then mechanically dissociated by 3 passages through a 10 ml pipette. Cells were then centrifuged at 180×g for 10 min at +4° C. on a layer of BSA (3.5%) in L15 medium. The supernatant was discarded and the cell pellets re-suspended in a defined culture medium consisting of Neurobasal supplemented with B27 (2%), L-glutamine (2 mM) and 2% of PS solution and 10 ng/mL of Brain-derived neurotrophic factor (BDNF) and 1 ng/mL of Glial-Derived Neurotrophic Factor (GDNF). Viable cells were counted in a Neubauer cytometer using the trypan blue exclusion test. The cells were seeded at a density of 40,000 cells/well in 96 well-plates (pre-coated with poly-L-lysine) and maintained in a humidified incubator at 37° C. in 5% CO2/95% air atmosphere. Half of the medium was changed every 2 days with fresh medium. The wells of first and last lines and columns […] (to avoid any edge effect) and were be filled with sterile water.
Test compounds and MPTP: • i) Pre-incubation. On day 6 of culture, the test compounds were dissolved in PBS or DMSO and incubated for 1 hour before the MPTP exposure. • ii) Injury. One hour after the application of test compound, MPTP was added to a final concentration of 4 μM, diluted in control medium still in presence of compounds/inhibitors for 48h. Test compounds were tested on one culture in 96-well plate (n=6 culture wells per condition).
Immunostaining: TH and α-Synuclein. 48 Hours after intoxication, the cell culture supernatant was removed, and the cells were fixed by a solution of 4% paraformaldehyde in PBS, pH=7.3 for 20 min at room temperature. The cells were washed twice in PBS, and then permeabilized. Non-specific sites were blocked with a solution of PBS containing 0.1% of saponin and 1% FCS for 15 min at room temperature. The cultures were incubated with: (a) monoclonal anti-Tyrosine Hydroxylase (TH) antibody produced in mouse at dilution of 1/10000 in PBS containing 1% FCS, 0.1% saponin, for 2 hours at room temperature, and (b) polyclonal anti-alpha synuclein (α-synuclein) antibody produced in rabbit at dilution of 1/200 in PBS containing 1% FCS, 0.1% saponin, for 2 h at room temperature.
Automatic computer analysis. For each condition, 20 pictures (representing the whole well area) were automatically taken using ImageXpress® (Molecular Devices) at 10× magnification (20 pictures, for TH and α-synuclein into TH neurons) using the same acquisition parameters. From images, analyses was directly and automatically performed by MetaXpress® (Molecular Devices).

**Q.** CCCN(C(=O)c1csc(-c2cnn(-c3ccccc3)c2)n1)[C@@H]1CCNC1 [Compound 171, (R)-2-(1-phenyl-1H-pyrazol-4-yl)-N-propyl-N-(pyrrolidin-3-yl)thiazole-4-carboxamide hydrochloride] was tested. Which “decrease in α-syn area per dopaminergic TH positive neuron compared to MPP+ injury alone” value did it give?
**A.** > 18%

**Q.** And the “increase in the length of the neurite network of dopaminergic TH positive neurons compared to the MPP+ injury alone” value?
**A.** > 31%

**Q.** What about the “increase in the number of dopaminergic TH positive neurons compared to MPP+ injury alone” value of the same compound?
**A.** > 25%
